Test results published in patent publication US9573907B2, “2, 4-pyrimidine derivatives and use thereof” (SNU R&DB FOUNDATION, priority 2009, dated 2017).

How the values were obtained:
[1] = target: T1, gp96 Y731F (Homo sapiens, UniProt P14625, Y735F); assay: Surface plasmon resonance, GPM1 binding to gp96 mutant Y731F
T1 construct: made in house; host or cells: Escherichia coli BL21 (DE3)
Protocol: Human gp96 was expressed as His tag fusion protein in Escherichia coli BL21 (DE3) and purified by nickel affinity chromatography. His-tagged human gp96 was immobilized onto CM5 sensor chips using standard amine coupling2. PBS was used as a running buffer. The carboxymethyl dextran surface within one side of the flow cell was activated with a 7-min injection of a 1:1 ratio of 0.4M EDC and 0.1M NHS. The protein was coupled to the surface with a 7-min injection of gp96 diluted in 10 mM sodium acetate, pH 3.7. Remaining activated groups were blocked with a 7-min injection of 1.0M ethanolamine, pH 8.5. GPM1 compound was dissolved directly in the PBS running buffer containing 1% DMSO and injected at a flow rate of 20 μl/min at 25° C. and the binding was determined by the change in resonance units (RU). The compound concentration varied from 10 nM to 25 μM and each concentration was tested at least three times. All of the bound complexes dissociated back to baseline within a reasonable time frame. Therefore, no regeneration was required. Sensorgram was processed by subtracting the binding response recorded from the control surface, followed by subtracting an average of the buffer blank injections from the reaction spot. To determine kinetic rate constants, all data sets were fit to a simple 1:1 binding with drifting baseline model using BIAevaluation program.
The present inventors compared the dose-dependent effect of GPM1 and NC1 on the interaction of gp96 and AIMP1 using ELISA. […] The present inventors monitored the binding kinetics of GPM1 to gp96 or AIMP1 by surface plasmon resonance (SPR) using BIAcore 3000. […] To further define the GPM1 binding region of gp96 (Han, J. M., Park, S. G., Liu, B., Park, B. J., Kim, J. Y., Jin, C. H., Song, Y. W., Li, Z. & Kim, S. Am. J. Pathol. 170, 2042-2054 (2007)), the present inventors introduced point mutations at L707, V706, V712, L713, F714, Y731 and M738 that are located within AIMP1 binding region of gp96 and monitored how the mutations at these sites would affect the binding of GPM1 to gp96 using SPR method.

[2] = test system: gp96tm transgenic mice
Protocol: Female gp96tm transgenic mice (Proc Natl Acad Sci USA. 2003 December 23; 100(26): 15824-15829) were bred and maintained at the animal center for pharmaceutical research, Seoul National University. We used age-matched, 12-26 weeks old mice in each experimental group. To suppress cell surface gp96 we used GPM1 compound. Dexamethasone and GPM1 were dissolved in 5% DMSO in phosphate-buffered saline (PBS) and control vehicle was 5% DMSO in PBS. Compounds were administered i.p. every 24 h for 2 months (30 mg/kg/day). Three groups of each 9 mice were examined. All procedures were conducted in accordance with the Guide for the Care and Use of Laboratory Animals, published by the Korean National Institute of Health.
Spleen and lymph node cell suspensions were prepared by grindling tissue through sterile mesh and erythrocytes were lysed with RBC lysis buffer (eBioscience, CA). For surface staining, antibodies were fluoresceinisothiocyanate (FITC)-, phycoerythrin (PE)-, PerCP-, or APC-conjugated. Antibodies used were CD4 (RM4-5, H129.12), CD8 (53-6,7), B220 (RA3-6B2), CD11b (M1/70), CD11c (HL3), CD44 (IM7), CD62L (MEL-14), CD69 (H1.2F3), CD25 (PC61.5), IgM (11/41), IgD (11-26C.2a) (BD Pharmingen, CA), MHC class II (M5/114.15.2), Foxp3 (FJK-16s) (eBioscience, CA), and gp96 (Santacruz, Calif.). After staining, cells were washed and analyzed on a FACS can flow cytometer using CellQuest software (BD Bioscience, Mountain View, Calif.).
Kidney tissue sections of gp96tm transgenic mice were fixed in 10% formaldehyde in PBS and dehydrated using an alcohol gradient. After paraffin infiltration, the tissues were sectioned using a microtome, stained with hematoxylin and eosin (H&E) and analyzed by light microscopy. For immunofluorescent staining, kidneys were sectioned with a cryostat. These cryosections were blocked with normal goat serum, stained with FITC-conjugated goat anti-mouse Ig (BD pharmingen, CA), and then observed by fluorescent microscopy.
The present inventors compared the effect of GPM1 with phosphate-buffered saline containing 5% DMSO and dexamethasone (Dex), an immunosuppressant of glucocorticoid family as negative and positive control, respectively. Each group consisted of age-matched nine female mice. […] After 2 month, the present inventors isolated MHC class II^+ splenocytes and lymph nodes from vehicle-, Dex-, and GPM1-treated mice and determined the portion of gp96^+ cells by flow cytometry.

[3] = spleen and lymph nodes, 30 mg/kg

T1 sequence (P14625 22-803 Y735F): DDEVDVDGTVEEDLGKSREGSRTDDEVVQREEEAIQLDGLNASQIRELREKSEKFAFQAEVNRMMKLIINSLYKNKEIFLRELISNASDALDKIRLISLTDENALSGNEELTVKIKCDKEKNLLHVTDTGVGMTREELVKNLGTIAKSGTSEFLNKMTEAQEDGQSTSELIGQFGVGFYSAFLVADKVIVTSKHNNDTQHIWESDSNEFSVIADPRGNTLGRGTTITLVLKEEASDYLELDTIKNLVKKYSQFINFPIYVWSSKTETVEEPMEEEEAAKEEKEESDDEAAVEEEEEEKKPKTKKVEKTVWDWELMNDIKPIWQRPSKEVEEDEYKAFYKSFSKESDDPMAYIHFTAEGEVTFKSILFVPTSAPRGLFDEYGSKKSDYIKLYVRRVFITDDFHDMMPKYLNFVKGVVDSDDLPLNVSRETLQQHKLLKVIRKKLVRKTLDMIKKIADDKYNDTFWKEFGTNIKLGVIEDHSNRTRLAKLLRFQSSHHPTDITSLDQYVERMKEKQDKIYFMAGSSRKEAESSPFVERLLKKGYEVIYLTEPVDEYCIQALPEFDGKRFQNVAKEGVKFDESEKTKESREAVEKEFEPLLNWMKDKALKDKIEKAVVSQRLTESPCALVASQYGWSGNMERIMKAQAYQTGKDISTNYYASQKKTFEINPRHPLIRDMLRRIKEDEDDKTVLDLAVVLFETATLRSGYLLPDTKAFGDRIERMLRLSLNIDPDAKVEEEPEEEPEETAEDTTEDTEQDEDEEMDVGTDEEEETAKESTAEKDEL

COC(=O)[C@@H](Oc1nc(OC)cc(OC)n1)C(C)C [GPM1, (S)-methyl 2-(4,6-dimethoxypyrimidin-2-yloxy)-3-methylbutanoate]
Kd [1]: 0.73 µM
koff (dissociation rate constant) [1]: 0.0149 s⁻¹
kon ([1]; read-out: Ka): 20400 M⁻¹ s⁻¹
glomerulonephritis phenotypes and glomerular immunoglobulin deposition ([2]; kidney sections): lessened
total cell count (spleen) ([2]; mouse, in vivo, 30 mg/kg/day): 4.56 ± 1.44 × 10^6
adverse effects / death during administration ([2]; mouse, in vivo, ip, 30 mg/kg): did not give apparent adverse effects
DNA-specific autoantibody levels ([2]; serum): reduced
Nuclear antigen-specific autoantibody levels ([2]; serum): reduced
total serum levels of IgG1, IgG2b, IgG3, IgM, and IgA ([2]; serum, ELISA): reduced
CD4+CD25+Foxp3+ regulatory T cell population ([2]; spleen and lymph nodes): increase
population of CD4+ memory cells and activated CD4+ T cells ([2]; spleen and lymph nodes): reduction
B220+ population [2, 3]: reduced
MHC class II+ population [2, 3]: reduced
mature B cell population (B220+IgM+IgD+) ([2]; splenocytes): decreased
ICOSL levels in CD11b+CD11c+ myeloid DC ([2]; splenocytes, 30 mg/kg): significantly reduced
ICOSL levels in CD11b+CD11c− macrophages ([2]; splenocytes, 30 mg/kg): suppressed
ICOSL levels in CD11b−CD11c+ lymphoid DCs ([2]; splenocytes, 30 mg/kg): little difference
percentages of gp96+ MHC class II+ cells ([2]; splenocytes, after 2 month, 30 mg/kg): ~41%
Proteinuria ([2]; urine): reduced
